The record followed here is patent US20240383908A1, “SYNTHESIS AND APPLICATION OF PHOSPHATASE DEGRADER” (HINOVA PHARMACEUTICALS INC., priority 2021, published 2024).

Test [1] concerns the target T1, SHP2 protein (Homo sapiens, UniProt Q06124).
T1 sequence (Q06124 1-593): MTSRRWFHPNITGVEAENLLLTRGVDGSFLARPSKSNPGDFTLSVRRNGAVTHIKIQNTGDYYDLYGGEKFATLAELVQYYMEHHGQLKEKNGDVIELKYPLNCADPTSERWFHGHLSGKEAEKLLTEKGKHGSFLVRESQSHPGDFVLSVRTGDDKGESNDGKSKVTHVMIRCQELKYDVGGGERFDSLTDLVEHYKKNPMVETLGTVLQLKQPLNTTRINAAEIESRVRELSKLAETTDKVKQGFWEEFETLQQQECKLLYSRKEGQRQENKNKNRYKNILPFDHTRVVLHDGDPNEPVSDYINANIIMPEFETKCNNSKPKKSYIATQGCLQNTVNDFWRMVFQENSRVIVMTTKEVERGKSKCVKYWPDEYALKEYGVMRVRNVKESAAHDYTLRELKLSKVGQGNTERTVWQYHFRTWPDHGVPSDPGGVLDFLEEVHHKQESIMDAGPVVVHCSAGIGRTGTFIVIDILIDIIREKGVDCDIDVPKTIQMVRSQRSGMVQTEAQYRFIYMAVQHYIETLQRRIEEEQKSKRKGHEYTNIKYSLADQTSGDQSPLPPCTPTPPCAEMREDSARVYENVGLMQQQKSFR
Put plainly: Degradation activity on SHP2 protein in MIA Paca-2 cells (Western blot, DC50). Format: cell-based. The arrangement: endogenous in cells; host or cells: MIA Paca-2 cells. To be noted: read-out: Degradation activity for differenct cell lines MIA Paca-2 (DC50). The procedure, abridged:
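Cells were treated 24 h at 37 °C with compound (0.1–100 nM final, 0.1% DMSO). SHP2 was measured by Western blot with GAPDH as loading control, densitometry normalized to DMSO (100%). DC50, the concentration giving 50% degradation, came from a dose-response fit.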
On the technique in general: In western blotting, separated proteins are transferred to a membrane and probed.

The target in test [2] is T1, SHP2 protein. As to the kind of experiment: Degradation activity on SHP2 protein in NCI-H358 cells (Western blot, DC50). Type of test: cell-based. The arrangement: endogenous in cells. To be noted: read-out: Degradation activity for differenct cell lines NCI-H358 (DC50). As for the experimental part: (1) MV-411 cells were cultured in the cell culture medium, and then well-growing cells were selected and inoculated in a 12-well plate, with 1 mL/well and 1×10^6 cells/well. The plate was incubated overnight in a 5% CO2 cell incubator at 37° C.
(2) 10 mM storage solution of each drug was prepared using dimethylsulfoxide (DMSO). The stock solution was diluted gradually with DMSO before use, and then 1 μL of the compound solution was added to the cell culture well (to ensure that the DMSO concentration in the culture system was […]), so that the final drug concentration is 100 nM, 10 nM, 3 nM, 1 nM, 0.3 nM, and 0.1 nM. Two wells were set for each concentration. The plate was gently shaken and mixed. Additionally, negative control wells (containing an equal amount of DMSO) and positive control wells were included.
(3) After 24 hours of cultivation, the cells were lysed using RIPA cell lysate, and the proteins were extracted. The protein concentration was measured using a BCA assay kit. 5× concentrated protein buffer was loaded, heated at 100° C. for 5 min, and then the sample was stored at −20° C.
(4) For each well, 30 μg of protein was loaded to polyacrylamide gel for electrophoresis.
(5) The protein was transferred from polyacrylamide gel to PVDF membrane, and sealed at room temperature with 5% skimmed milk for 1 h, which was then incubated with the primary antibodies (Anti-SHP2 rabbit mAb and Anti-GAPDH rabbit mAb) at 4° C. overnight. The membrane was washed three times with TBST solution, 10 minutes for each time. After that, the membrane was incubated with the secondary antibodies (horseradish peroxidase labeled goat anti-rabbit IgG) at room temperature for 2 h, and then washed three times with TBST solution, 10 minutes for each time, followed by exposure.
(6) The images were analyzed with Image J grayscale, and the degradation ratio of protein bands in the test group was calculated, based on the negative control group (DMSO) (100%).
(7) Using the Dose-response-inhibition equation in the data processing software GraphPad Prism 8, the DC50 value was obtained (which represents the drug concentration corresponding to 50% degradation of the target protein).
Using similar methods and different cell lines, the degradation activity of the compound according to the present invention on SHP2 protein of different cell lines was tested under suitable culture conditions.

The term DC50 denotes the concentration giving 50% degradation. In the case of `Cc1ncsc1-c1ccc([C@H](C)NC(=O)[C@@H]2C[C@@H](O)CN2C(=O)[C@@H](NC(=O)c2cnc(N3CCN(CCCC(=O)Nc4cccc(Sc5cnc(N6CCC7(CC6)CO[C@@H](C)[C@H]7N)cn5)c4)CC3)nc2)C(C)(C)C)cc1` [Compound 230], the DC50 at SHP2 protein [1] and at SHP2 protein [2] was under 100 nM throughout.
Regarding `CC1(N)CCN(c2cnc(Sc3cccc(NC(=O)c4ccc(N5CCC(N6CC=C(c7cnc(C(=O)NCc8ccc9c(c8)CN(C8CCC(=O)NC8=O)C9=O)cc7Cl)CC6)CC5)cc4)c3)cn2)CC1` (centres unmarked) [Compound 399], the DC50 at SHP2 protein [1] and on SHP2 protein [2] was under 100 nM in each case.
Consider `CC1(N)CCN(c2cnc(Sc3cccc(NC(=O)c4ccc(N5CCC(N6CC=C(c7ccc(C(=O)NCc8ccc9c(c8)CN(C8CCC(=O)NC8=O)C9=O)cc7)CC6)CC5)c(F)c4)c3)cn2)CC1` (centres unmarked) [Compound 445], for which the DC50 is 100 to 1000 nM at SHP2 protein [1] and under 100 nM on SHP2 protein [2].
In the same order, the values of `CC1(N)CCN(c2cnc(Sc3cccc(NC(=O)c4ccc(N5CCC(N6CC=C(c7ccc(C(=O)NCc8ccc9c(c8)CN(C8CCC(=O)NC8=O)C9=O)nc7Cl)CC6)CC5)c(F)c4)c3)cn2)CC1` (centres unmarked) [Compound 442] are 100 to 1000 nM and 100 to 1000 nM.
The matching figures for `CC1(N)CCN(c2cnc(Sc3cccc(NC(=O)c4ccc(N5CCC(N6CC=C(c7ccc(C(=O)NCc8ccc9c(c8)CN(C8CCC(=O)NC8=O)C9=O)nc7)CC6)CC5)cc4F)c3)cn2)CC1` (centres unmarked) [Compound 405]: 100 to 1000 nM and under 100 nM.
The matching figures for `Cc1ncsc1-c1ccc([C@H](C)NC(=O)[C@@H]2C[C@@H](O)CN2C(=O)[C@@H](NC(=O)c2cnc(N3CCN(CCCCCC(=O)Nc4cccc(Sc5cnc(N6CCC(C)(N)CC6)cn5)c4)CC3)nc2)C(C)(C)C)cc1` [Compound 220]: under 100 nM and under 100 nM.
Take `CC1(N)C2CCC1CN(c1cnc(Sc3cccc(NC(=O)CCCCCCCCN4CCC(c5ccc(C(=O)NCc6ccc7c(c6)CN(C6CCC(=O)NC6=O)C7=O)nn5)CC4)c3)cn1)C2` (centres unmarked) [Compound 224]: the half-maximal degradation concentration (DC50) on SHP2 protein [1] and at SHP2 protein [2] was under 100 nM throughout.
Consider `CC1(N)CCN(c2cnc(Sc3cccc(NC(=O)c4ccc(N5CCC(N6CC=C(c7cnc(C(=O)NCc8ccc9c(c8)CN(C8CCC(=O)NC8=O)C9=O)cn7)CC6)CC5)cc4)c3)cn2)CC1` (centres unmarked) [Compound 371], for which the DC50 is 100 to 1000 nM at SHP2 protein [1] and under 100 nM at SHP2 protein [2].
Consider `CC1(N)CCN(c2cnc(Sc3cccc(NC(=O)c4ccc(N5CCC(N6CCN(c7ccc(C(=O)NCc8ccc9c(c8)CN(C8CCC(=O)NC8=O)C9=O)nc7)CC6)CC5)c(F)c4)c3)cn2)CC1` (centres unmarked) [Compound 396], for which the DC50 at SHP2 protein [1] and on SHP2 protein [2] was under 100 nM in each case.
For the molecule `C[C@H]1CN(c2ccc(C(=O)NCc3ccc4c(c3)CN(C3CCC(=O)NC3=O)C4=O)nn2)CCN1CCCCCCCCC(=O)Nc1cccc(Sc2cnc(N3CCC(C)(N)CC3)cn2)c1` (some centres unmarked) [Compound 249], the DC50 on SHP2 protein [1] and on SHP2 protein [2] was under 100 nM in each case.
As to `CC1(N)CCN(c2cnc(Sc3cccc(NC(=O)c4ccc(-c5ccc(N6CCC7(CC6)CC7C(=O)NCc6ccc7c(c6)CN(C6CCC(=O)NC6=O)C7=O)cc5)cc4)c3)cn2)CC1` (centres unmarked) [Compound 406], the DC50 at SHP2 protein [1] and at SHP2 protein [2] was over 1000 nM each time.
For the molecule `CC1(N)CCN(c2cnc(Sc3cccc(NC(=O)c4ccc(N5CCC(N6CCN(c7ccc(C(=O)NCc8ccc9c(c8)CN(C8CCC(=O)NC8=O)C9=O)nc7)CC6)CC5)cc4)c3)cn2)CC1` (centres unmarked) [Compound 395], the DC50 on SHP2 protein [1] and on SHP2 protein [2] was under 100 nM throughout.
As for `COc1cc(C2=CCN(C3CCN(c4ccc(C(=O)Nc5cccc(Sc6cnc(N7CCC(C)(N)CC7)cn6)c5)cc4)CC3)CC2)ccc1C(=O)NCc1ccc2c(c1)CN(C1CCC(=O)NC1=O)C2=O` (centres unmarked) [Compound 377], the DC50 on SHP2 protein [1] and on SHP2 protein [2] was under 100 nM each time.
For the molecule `Cc1ncsc1-c1ccc([C@H](C)NC(=O)[C@@H]2C[C@@H](O)CN2C(=O)[C@@H](NC(=O)c2cnc(N3CC(OCC(=O)Nc4cccc(Sc5cnc(N6CCC(C)(N)CC6)cn5)c4)C3)nc2)C(C)(C)C)cc1` [Compound 240], the DC50 at SHP2 protein [2] is over 1000 nM.
In the case of `CC1(N)CCN(c2cnc(Sc3cccc(NC(=O)c4ccc(N5CCC(N6CCN(c7ccc(C(=O)NCc8ccc9c(c8)CN(C8CCC(=O)NC8=O)C9=O)nc7)CC6)CC5)cn4)c3)cn2)CC1` (centres unmarked) [Compound 448], the DC50 at SHP2 protein [1] and on SHP2 protein [2] was under 100 nM each time.
Regarding `C[C@H]1CN(CCCCCCCCC(=O)Nc2cccc(Sc3cnc(N4CCC(C)(N)CC4)cn3)c2)CCN1c1ccc(C(=O)NCc2ccc3c(c2)CN(C2CCC(=O)NC2=O)C3=O)nn1` (some centres unmarked) [Compound 250], the DC50 on SHP2 protein [1] and at SHP2 protein [2] was under 100 nM each time.
With `Cc1ncsc1-c1ccc([C@H](C)NC(=O)[C@@H]2C[C@@H](O)CN2C(=O)[C@@H](NC(=O)c2cnc(N3CCN(CCCCCCC(=O)Nc4cccc(Sc5cnc(N6CCC(C)(N)CC6)cn5)c4)CC3)nc2)C(C)(C)C)cc1` [Compound 241], the DC50 on SHP2 protein [1] and at SHP2 protein [2] was under 100 nM throughout.
Consider `CC1(N)CCN(c2cnc(Sc3cccc(NC(=O)CCCCCCCCN4C5CCC4CC(c4ccc(C(=O)NCc6ccc7c(c6)CN(C6CCC(=O)NC6=O)C7=O)nn4)C5)c3)cn2)CC1` (single isomer, unassigned) [Compound 234], for which the DC50 on SHP2 protein [2] is under 100 nM.
Regarding `CC1(N)CCN(c2cnc(Sc3cccc(NC(=O)CCCCN4CCC(N5CCN(c6ccc(C(=O)NCc7ccc8c(c7)CN(C7CCC(=O)NC7=O)C8=O)nn6)CC5)C4)c3)cn2)CC1` (centres unmarked) [Compound 266], the results for the DC50 at SHP2 protein [1] and at SHP2 protein [2] were over 1000 nM and 100 to 1000 nM, respectively.
The matching figures for `CC1(N)CCN(c2cnc(Sc3cccc(NC(=O)CCCCCCCCN4CCN(c5ccc(C(=O)NCc6ccc7c(c6)CN(C6CCC(=O)NC6=O)C7=O)nn5)C[C@@H]4CO)c3)cn2)CC1` (some centres unmarked) [Compound 251]: under 100 nM and under 100 nM.
The matching figures for `CC1(N)CCN(c2cnc(Sc3cccc(NC(=O)CCCCCCN4CC5(CC=C(c6ccc(C(=O)NCc7ccc8c(c7)CN(C7CCC(=O)NC7=O)C8=O)nc6)CC5)C4)c3)cn2)CC1` (centres unmarked) [Compound 217]: under 100 nM and under 100 nM.
The matching figures for `Cn1nc(C(=O)NCc2ccc3c(c2)CN(C2CCC(=O)NC2=O)C3=O)cc1C1=CCN(CCCCCCCCC(=O)Nc2cccc(Sc3cnc(N4CCC(C)(N)CC4)cn3)c2)CC1` (centres unmarked) [Compound 246]: under 100 nM and under 100 nM.
`CC1(N)CCN(c2cnc(Sc3cccc(NC(=O)CCCCCCCCN4C5CCC4CC(c4ccc(C(=O)NCc6ccc7c(c6)CN(C6CCC(=O)NC6=O)C7=O)nn4)C5)c3)cn2)CC1` (single isomer, unassigned) [Compound 233]: the DC50 on SHP2 protein [2] was under 100 nM.
On the same count and under the same terms, the same measure for `CC1(N)CCN(c2cnc(Sc3cccc(NC(=O)CCCCCCCCN4CCc5cc(C(=O)NCc6ccc7c(c6)CN(C6CCC(=O)NC6=O)C7=O)cnc5C4)c3)cn2)CC1` (centres unmarked) [Compound 235]: under 100 nM; for `CC1(N)CCN(c2cnc(Sc3cccc(NC(=O)CCCCCCCOC4CCN(c5ccc(C(=O)NCc6ccc7c(c6)CN(C6CCC(=O)NC6=O)C7=O)nn5)CC4F)c3)cn2)CC1` (centres unmarked) [Compound 147]: under 100 nM.
Same read-out and setting: the same measure for `CC1(N)CCN(c2cnc(Sc3cccc(NC(=O)CCCCCCCCN4CCN(c5ccc(C(=O)NCc6ccc7c(c6)CN(C6CCC(=O)NC6=O)C7=O)nn5)CC4C(F)(F)F)c3)cn2)CC1` (centres unmarked) [Compound 225]: under 100 nM; for `CC1(N)CCN(c2cnc(Sc3cccc(NC(=O)CCCCOc4ccc(N5CCN(c6ccc(C(=O)NCc7ccc8c(c7)CN(C7CCC(=O)NC7=O)C8=O)nn6)CC5)cc4)c3)cn2)CC1` (centres unmarked) [Compound 236]: under 100 nM.
